Experimental data as given in PubChem BioAssay (NCI).
Values joined by “and” are separate entries in the source; they are usually repeats but may differ in a detail not shown here. Equal entries are not always repeated.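 Following 48 hours of exposure in 96-well plates, responses at five concentrations were used to interpolate endpoints linearly. At the GI50, growth is halved. TGI marks complete inhibition of growth.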

Assays:
Experiment in all cases: NCI tumour cell line growth inhibition, 48 h
[1] = tested on: 786-0 renal
[2] = tested on: A549 NSCLC
[3] = tested on: HCC-2998 colon
[4] = tested on: HOP-92 NSCLC
[5] = tested on: LOX IMVI melanoma
[6] = tested on: M14 melanoma
[7] = tested on: MCF7 breast
[8] = tested on: SK-MEL-2 melanoma
[9] = tested on: TK-10 renal
[10] = tested on: U251 CNS

Structure (SMILES)	GI50 [1]	TGI [1]	GI50 [2]	TGI [2]	GI50 [3]	TGI [3]	GI50 [4]	TGI [4]	GI50 [5]	TGI [5]	GI50 [6]	TGI [6]	GI50 [7]	TGI [7]	GI50 [8]	TGI [8]	GI50 [9]	TGI [9]	GI50 [10]	TGI [10]
COc1ccc2nc3cc([N+](=O)[O-])ccc3c(NCCCN(CCO)CCO)c2c1	4.09 µM	21.1 µM	10.9 µM	24.6 µM	2.87 µM	7.88 µM	4.31 µM	11.2 µM	2.42 µM	6.32 µM	2.36 µM	5.18 µM	0.889 µM	4.95 µM	1.49 µM	3.2 µM	5.95 µM	22 µM	3.57 µM	13.4 µM
Clc1ccc(C(c2ccc(Cl)cc2)N2CCNCC2)cc1		3.17 µM		8.4 µM		3.05 µM		10.6 µM		4.53 µM		3.39 µM		3.86 µM		3.63 µM		3.74 µM		4.2 µM
CCCCOC(=O)c1ccc(NC(=O)CCl)cc1	2.04 µM	3.74 µM	10.2 µM	22.8 µM	15.6 µM	32.7 µM	1.93 µM	3.65 µM	1.03 µM	2.35 µM	3.07 µM	12.7 µM	2.35 µM	10 µM	4.89 µM	15.9 µM	1.91 µM	3.85 µM	1.71 µM	3.1 µM
C[n+]1c2ccccc2c(Nc2ccc(NS(=O)(=O)CCCCN=C(N)N)cc2)c2ccc(N)cc21	3.8 µM	> 100 µM	< 0.0128 µM	16 µM	8.97 µM	> 100 µM	1.92 µM	52.9 µM	1.82 µM	> 100 µM	4.14 µM	> 100 µM	0.0429 µM	> 81.2 µM	18.5 µM	50.6 µM	6.47 µM	58.3 µM	0.22 µM	54 µM
COc1ccc(-c2nn(-c3cccc(Cl)c3)cc2-c2c(C#N)c(=O)n3[nH]c(-c4ccc(C)cc4)nc3c2C#N)cc1	1.39 µM	5.93 µM	1.85 µM	12.4 µM	5.04 µM	10.8 µM	0.723 µM	4.88 µM	2.44 µM	17.1 µM	1.66 µM	6.67 µM	3.22 µM	11.4 µM	1.41 µM	4.02 µM	2.01 µM	7.35 µM	0.797 µM	1.59 µM
O=C(O)c1ccc2c3c(ncnc13)-c1ccccc1C2=O	37 µM	> 100 µM	2.23 µM	4.84 µM	8.52 µM	> 100 µM	> 100 µM	> 100 µM	1.74 µM	18.5 µM	1.35 µM	3.05 µM	4.14 µM	> 100 µM	20.7 µM	> 100 µM	21.9 µM	> 100 µM	4.08 µM	> 100 µM
c1ccc(Nn2c(CCCCCCCCc3nnc(COc4ccccc4)n3Nc3ccccc3)nnc2COc2ccccc2)cc1	29 µM and 36.3 µM	> 300 µM			16.2 µM and 15.7 µM	> 72.6 µM and 186 µM	30.7 µM and 41.9 µM	267 µM	5.35 µM and 4.04 µM	> 300 µM	6.24 µM and 4.23 µM	> 60.1 µM and 50.2 µM	18.3 µM	> 300 µM	13.8 µM and 25.5 µM	> 63.4 µM and 252 µM	45.7 µM and 162 µM	> 300 µM	39.6 µM and 144 µM	> 300 µM
CCOC(=O)NC1=C(N2CC2)C(=O)C(NC(=O)OCC)=C(N2CC2)C1=O	4.02 µM and 1.78 µM	25 µM and 18.4 µM and 33.2 µM	6.46 µM and 1.64 µM and 3.09 µM	25 µM and 43 µM and 40.2 µM	20 µM and 10.3 µM	25 µM and 23.2 µM and 35 µM	6.18 µM	16.1 µM and 11.2 µM and 10.1 µM		17.1 µM and 11.9 µM	4.91 µM and 4.5 µM	25 µM and 23.7 µM and 31.7 µM	6.33 µM	25 µM and 21.3 µM	5.09 µM and 7.71 µM	15.2 µM and 14.4 µM and 16.1 µM	> 25 µM	> 25 µM and 65.1 µM	3.91 µM	20 µM and 10.8 µM and 9.77 µM
CSc1n(Cc2ccc3ccccc3c2)c(C)c[n+]1Cc1ccc2ccccc2c1	1.53 µM	2.97 µM	1.28 µM	2.73 µM	0.535 µM	1.82 µM	0.255 µM	1.28 µM	0.591 µM	1.9 µM	0.608 µM	2.08 µM	0.505 µM	1.88 µM	0.486 µM	1.73 µM	1.41 µM	2.88 µM	0.422 µM	1.65 µM
O=C(NCCN1CCC(O)CC1)c1cc2c(o1)C(=O)c1ccccc1C2=O	1.44 µM	2.96 µM	0.213 µM	0.514 µM	0.208 µM	0.451 µM	1.48 µM	3.19 µM	0.145 µM	0.337 µM	0.123 µM	0.268 µM	0.137 µM	0.338 µM	0.518 µM	2.21 µM	2 µM	3.59 µM	0.335 µM	1.14 µM
Cc1cccc(Cl)c1NC(=O)c1cnc(Nc2cc(N3CCOCC3)cc(N3CCOCC3)c2)s1	0.0183 µM		0.158 µM	> 10 µM	> 4.21 µM	> 10 µM	0.00255 µM	0.031 µM	0.012 µM	0.083 µM	4.18 µM	> 10 µM	> 4.47 µM	> 10 µM	> 5.25 µM	> 10 µM	0.00622 µM	0.0729 µM	> 3.85 µM	> 10 µM
O=C(Nc1ccc2[nH]c(C(=O)N3CC(CCl)c4c3cc([N+](=O)[O-])c3ccccc43)cc2c1)c1cc2ccccc2o1 (stereo not given)	> 1100 µM	> 1100 µM	> 1100 µM	> 1100 µM	57.7 µM	> 1100 µM	> 1100 µM	> 1100 µM	> 1100 µM	> 1100 µM	> 1100 µM	> 1100 µM	> 1100 µM	> 1100 µM	> 1100 µM	> 1100 µM			> 1100 µM	> 1100 µM
O=C(/C=C/c1cccc([N+](=O)[O-])c1)c1ccc(O)c(CN2CCN(c3cc4c(cc3F)c(=O)c(C(=O)O)cn4C3CC3)CC2)c1	1.57 µM	3 µM	3.1 µM	17.2 µM	1.92 µM	3.43 µM	2.17 µM	9.97 µM	0.364 µM	1.41 µM			0.332 µM	1.44 µM	2.35 µM	5.17 µM	2.1 µM	5.59 µM	1.17 µM	2.62 µM
Nc1nc2ccc3[nH]ncc3c2c2c1CCCC2	2.15 µM	9.85 µM	2.24 µM	13.4 µM	1.61 µM	3.62 µM	2.09 µM	7.79 µM	1.29 µM	2.82 µM	1.53 µM	3.23 µM	0.403 µM	7.25 µM	2.12 µM	5.35 µM	2 µM	14.5 µM	2.7 µM	13.4 µM
CC(C)[NH-].CC(C)[NH-].O.O.[Cl][Pt+2][Cl]	33.8 µM	126 µM	33.9 µM	213 µM	87.9 µM	220 µM	22.3 µM	70.8 µM	18.3 µM	51.4 µM	37.5 µM	139 µM	19.4 µM	102 µM	19 µM	91.6 µM	190 µM	467 µM	27.3 µM	107 µM
COc1c2c(c(CC=C(C)C)c3oc(=O)c(-c4ccc(O)cc4)c(O)c13)OC(C)(C)C=C2		71.3 µM		> 100 µM		48.1 µM		58.7 µM		> 100 µM		73.3 µM		54.3 µM		52.8 µM		> 100 µM		27.8 µM
COc1cc(-c2csc(NC(=O)Nc3cc(C(F)(F)F)cc(C(F)(F)F)c3)n2)cc(OC)c1OC	3.17 µM	11.8 µM	2.62 µM	12.4 µM	3.81 µM	14.4 µM	1.35 µM	4.36 µM	3.04 µM	12.3 µM	2.35 µM	6.24 µM	2.41 µM	11.8 µM	1.66 µM	5.85 µM	2.45 µM	10.3 µM	2.73 µM	10.7 µM
COc1ccc2c(c1)c1nc3cc(C)c(C)cc3nc1n2CCN(C)C	1.02 µM	2.73 µM	0.495 µM	2.19 µM	1.07 µM	2.58 µM	0.308 µM	2.12 µM	0.375 µM	1.6 µM	1.1 µM	2.57 µM	0.333 µM	1.42 µM	1.46 µM	3.29 µM	1.84 µM	3.58 µM	0.57 µM	2.19 µM
COc1cc2c(cc1OC)C(CC1(O)CCCCC1)N(S(=O)(=O)c1ccc(C)cc1)CC2 (stereo not given)	> 10 µM	> 10 µM	> 10 µM	> 10 µM	> 10 µM	> 10 µM	> 10 µM	> 10 µM	> 10 µM	> 10 µM	> 10 µM	> 10 µM	> 10 µM	> 10 µM	> 10 µM	> 10 µM	> 10 µM	> 10 µM	> 10 µM	> 10 µM
CN1C(=O)C(=Cc2cn(Cc3ccccc3)c3ccccc23)C(=O)N(C)C1=O	57.7 µM	> 100 µM	> 39.7 µM	> 100 µM	> 33.7 µM	> 70.8 µM	14.7 µM	> 70.9 µM	35.3 µM	> 100 µM	48.7 µM	> 100 µM	21.4 µM	> 100 µM		> 67.6 µM	4.28 µM	56.5 µM	18.2 µM	> 71.3 µM
C[C@@H](NC(=O)[C@@H](CC(=O)N1CCC(N2CCCCC2)CC1)N1C(=O)[C@@H](N2C(=O)OC[C@@H]2c2ccccc2)[C@H]1/C=C/c1cccc(Cl)c1)c1ccccc1	1.88 µM	3.95 µM	4.34 µM	15.6 µM	1.99 µM	4.08 µM	3.64 µM	16.8 µM	1.46 µM	3.06 µM	1.75 µM	3.37 µM	2.04 µM	5.36 µM	2.25 µM	5.36 µM	1.92 µM	4.76 µM	2.03 µM	4.06 µM
COc1ccc(-c2cn(-c3cccc(C(=O)/C=C/c4ccc(O)c(OC)c4)c3)c(=O)[nH]2)cc1	4.32 µM	24.5 µM	3.64 µM	> 53 µM	2.39 µM	6.14 µM	2.61 µM	20.5 µM	2.21 µM	6.02 µM	4.48 µM	40.5 µM	2.66 µM	22 µM	4.72 µM	> 58.1 µM	7.38 µM	> 85.4 µM	2.86 µM	15.3 µM
N#Cc1ccc(C2C3=C(CCCC3=O)OC3=C2C(=O)c2ccccc2C3=O)cc1 (stereo not given)	1.87 µM	3.76 µM	7.66 µM	22.3 µM	3 µM	8.38 µM	1.27 µM	3.59 µM	0.343 µM	1.69 µM	1.71 µM	3.37 µM	0.664 µM	2.65 µM	1.35 µM	3.33 µM			1.7 µM	3.16 µM
COc1ccc2c(c1)CCc1[nH]nc(-c3cc(OC)c(OC)c(OC)c3)c1-2	< 0.01 µM	11.5 µM	< 0.01 µM	19.5 µM	< 0.01 µM	11.4 µM	< 0.01 µM	28.5 µM	< 0.01 µM	11.8 µM	< 0.01 µM	10.9 µM	< 0.01 µM	12.9 µM	< 0.01 µM	26.8 µM			< 0.01 µM	11.5 µM
CCN(CC)CCCC(C)Nc1c2ccc(Cl)cc2nc2cc(OC)c(OC)cc12 (stereo not given)	1.46 µM	5.57 µM	1.85 µM	4.56 µM	1.49 µM	3 µM	2.33 µM	8.34 µM	1.23 µM	2.64 µM	1.88 µM	3.56 µM	0.656 µM	2.9 µM	2.64 µM	5.73 µM	1.99 µM	5.04 µM		
